Reference: ChEMBL document CHEMBL1201862, “PubChem BioAssay data set” (2004)
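Briefly, cells in 96-well plates were exposed to five compound concentrations for 48 h, and endpoints were estimated by linear interpolation. GI50: concentration for 50% inhibition of growth.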 Calls of active or inactive are those of the source. Cut-off read from the data, not from the text of the source: active = GI50 up to about 1.1 µM and inactive = higher.

Key:
Experiment in all cases: NCI anticancer screen, dose series, 48 h
[1] = tested on: SF-268
[2] = tested on: SK-MEL-28
[3] = tested on: HT-29
[4] = tested on: SK-MEL-5
[5] = tested on: CCRF-CEM
[6] = tested on: RXF 393
[7] = tested on: HOP-62
[8] = tested on: Malme-3M
[9] = tested on: MOLT-4
[10] = tested on: NCI-H522
[11] = tested on: HOP-92
[12] = tested on: LXFL 529
[13] = tested on: UACC-257
[14] = tested on: A498
[15] = tested on: K562
[16] = tested on: SF-295
[17] = tested on: OVCAR-5
[18] = tested on: RPMI-8226

Compound	GI50 [1]	GI50 [2]	GI50 [3]	GI50 [4]	GI50 [5]	GI50 [6]	GI50 [7]	GI50 [8]	GI50 [9]	GI50 [10]	GI50 [11]	GI50 [12]	GI50 [13]	GI50 [14]	GI50 [15]	GI50 [16]	GI50 [17]	GI50 [18]
O=C1CC2C(=O)N(Cc3ccccc3)C1C=C2S(=O)(=O)c1ccccc1 (stereo unspecified)	> 100 µM (inactive)	> 100 µM (inactive)	> 100 µM (inactive)	> 100 µM (inactive)	> 100 µM (inactive)	> 100 µM (inactive)	> 100 µM (inactive)	> 100 µM (inactive)	> 100 µM (inactive)	> 100 µM (inactive)	> 100 µM (inactive)	> 100 µM (inactive)	> 100 µM (inactive)	> 100 µM (inactive)	> 100 µM (inactive)	> 100 µM (inactive)	–	–
COc1ccc(C2=C3c4cc(OC)c(OC)cc4CCN3C(=S)SS2)cc1OC	72.1 µM (inactive)	70.6 µM (inactive)	72.8 µM (inactive)	13.3 µM (inactive)	46.5 µM (inactive)	92.3 µM (inactive)	> 100 µM (inactive)	24 µM (inactive)	> 100 µM (inactive)	50.1 µM (inactive)	32.1 µM (inactive)	52.5 µM (inactive)	72.4 µM (inactive)	46.6 µM (inactive)	71 µM (inactive)	> 100 µM (inactive)	> 100 µM (inactive)	63.2 µM (inactive)
CN(C)CCn1c2ccccc2c2nc3cc4ccccc4cc3nc21	2.14 µM (inactive)	9.23 µM (inactive)	0.643 µM (active)	10.1 µM (inactive)	2.88 µM (inactive)	11 µM (inactive)	3.07 µM (inactive)	10 µM (inactive)	0.885 µM (active)	5.79 µM (inactive)	–	4.95 µM (inactive)	–	2.34 µM (inactive)	2.92 µM (inactive)	4.05 µM (inactive)	–	2.91 µM (inactive)
Cc1c(CCl)c(=O)oc2c(C)c3occ(CCl)c(=O)c3cc12	24.7 µM (inactive)	17.5 µM (inactive)	–	> 100 µM (inactive)	3.18 µM (inactive)	15.7 µM (inactive)	> 100 µM (inactive)	> 100 µM (inactive)	6.35 µM (inactive)	13.4 µM (inactive)	–	15.2 µM (inactive)	> 100 µM (inactive)	> 100 µM (inactive)	6.43 µM (inactive)	> 100 µM (inactive)	> 100 µM (inactive)	8.69 µM (inactive)
CCCCCCCCCCCC(=O)OCCOCCOCCOCCOCCOC(=O)CCCCCCCCCCC	> 100 µM (inactive)	> 100 µM (inactive)	> 100 µM (inactive)	> 100 µM (inactive)	> 100 µM (inactive)	> 100 µM (inactive)	> 100 µM (inactive)	> 100 µM (inactive)	> 100 µM (inactive)	> 100 µM (inactive)	> 100 µM (inactive)	> 100 µM (inactive)	> 100 µM (inactive)	> 100 µM (inactive)	> 100 µM (inactive)	> 100 µM (inactive)	> 100 µM (inactive)	> 100 µM (inactive)
NNC(=S)N/N=C(/C(=O)Nc1cc(Cl)ccc1Cl)C1C(=O)Nc2ccccc2[S+]1[O-] (stereo unspecified)	> 100 µM (inactive)	> 100 µM (inactive)	> 100 µM (inactive)	> 100 µM (inactive)	> 100 µM (inactive)	> 100 µM (inactive)	> 100 µM (inactive)	> 100 µM (inactive)	78.9 µM (inactive)	68.9 µM (inactive)	> 100 µM (inactive)	> 100 µM (inactive)	> 100 µM (inactive)	> 100 µM (inactive)	> 100 µM (inactive)	> 100 µM (inactive)	> 100 µM (inactive)	–
O=C(NCCCN1CCN(CCCNC(=O)c2cccc3ccccc23)CC1)c1cccc2ccccc12	–	–	41.2 µM (inactive)	36.4 µM (inactive)	> 100 µM (inactive)	–	30.8 µM (inactive)	57.4 µM (inactive)	> 100 µM (inactive)	–	0.107 µM (active)	89.7 µM (inactive)	> 100 µM (inactive)	> 100 µM (inactive)	41.4 µM (inactive)	54.8 µM (inactive)	> 100 µM (inactive)	> 100 µM (inactive)
CC#Cc1c(C#CC)c(OC)c2c(c1OC)C(=O)c1ccccc1C2=O	25.7 µM (inactive)	> 100 µM (inactive)	> 100 µM (inactive)	49.1 µM (inactive)	> 100 µM (inactive)	10.7 µM (inactive)	17.3 µM (inactive)	> 100 µM (inactive)	> 100 µM (inactive)	3.15 µM (inactive)	–	54.2 µM (inactive)	> 100 µM (inactive)	33.1 µM (inactive)	> 100 µM (inactive)	13.3 µM (inactive)	> 100 µM (inactive)	39.2 µM (inactive)
